Values of other authors as cited in patent US20060251786A1 (priority 2005, published 2006).

Details: scale of 1-6; Gosselin et al., 5th ed, 1984

In the case of CN1CCCC1c1cccnc1 (centres unmarked) [nicotine], the toxicity level is listed as 6.
For O=c1ccc2ccccc2o1 [coumarin, 1,2-benzopyrone], the toxicity level is given as 4.
